Experimental data as given in patent US20110152267A1, “Compositions and Methods for Treating Hyperproliferative Disorders” (Texas Tech University System, priority 2009, published 2011).

Key:
[1] = tested on: drug-resistant CHLA-90 neuroblastoma cancer cell line; test: DIMSCAN cytotoxicity dose-response with fenretinide (Examples A, FIGS. 1, 7, 12); assay type: cell-based, human; details: at one or more doses, +96 hrs
Protocol: Cytotoxicity Assay: Cytotoxicity in cell lines was determined using a fluorescence-based assay employing digital imaging microscopy (DIMSCAN)(after Fragala, et al, Mol Cancer Ther, 6:886-897, 2007). DIMSCAN quantitates viable cells which selectively accumulate fluorescein diacetate and is capable of measuring cytotoxicity over a 4-5 log dynamic range by quantifying total fluorescence per well (which is proportional to viable, clonogenic cells) after eliminating background fluorescence using digital thresholding and eosin Y quenching. Briefly, cell lines were seeded into 96-well plates in 100 µL of complete culture medium (10-20% serum) per well. Cells were incubated overnight in 2%, 5% or 20% oxygen (room air) prior to addition of drugs in […] volumes of complete medium to various final drug concentrations in replicates of 12 wells per concentration. In assays employing D-threo-PPMP, PPMP was employed at a fixed, minimally-toxic, final concentration of 10 μM in each well. Control wells received ethanol (final concentration=0.12%-0.20%) in complete medium equivalent to the maximum final ethanol concentration of drug-treated wells. Plates were incubated at various oxygen concentrations to simulate physiological hypoxia (i.e., 2% oxygen=typical solid tumor oxygen levels; 5%=bone marrow oxygen levels for leukemias; 20% room air=supraphysiological oxygen for comparison with typical laboratory culture conditions). Plates were assayed at 3-4 days after initiating drug exposure depending on the growth properties of each cell line, to allow for maximum cell death and outgrowth of surviving cells. To measure cytotoxicity, FDA (stock solution of 1 mg/ml in DMSO) was added, in 50 µL of complete medium per well, to a final concentration of 10 µg/ml. The plates were incubated for an additional 15-30 minutes at 37 C and then 30 µL of eosin Y (0.5% in normal saline) was added per well. Total fluorescence of each well was then measured using digital imaging microscopy. […]

[2] = tested on: HT-29 colon cancer cell line; test: DIMSCAN cytotoxicity dose-response with fenretinide, with or without D-threo-PPMP (Examples A, FIGS. 4, 10, 15, 21-23); assay type: cell-based, human; details: +96 hrs; for C.I. of D-threo-PPMP with fenretinide+L-threo-sphinganine (three drug combination): D-threo-PPMP fixed 10 uM, at most doses; for C.I. (Combination Index) with fenretinide: at one or more doses
Protocol: (§1) Cytotoxicity Assay: Cytotoxicity in cell lines was determined using a fluorescence-based assay employing digital imaging microscopy (DIMSCAN)(after Fragala, et al, Mol Cancer Ther, 6:886-897, 2007). DIMSCAN quantitates viable cells which selectively accumulate fluorescein diacetate and is capable of measuring cytotoxicity over a 4-5 log dynamic range by quantifying total fluorescence per well (which is proportional to viable, clonogenic cells) after eliminating background fluorescence using digital thresholding and eosin Y quenching. Briefly, cell lines were seeded into 96-well plates in 100 µL of complete culture medium (10-20% serum) per well. Cells were incubated overnight in 2%, 5% or 20% oxygen (room air) prior to addition of drugs in […] volumes of complete medium to various final drug concentrations in replicates of 12 wells per concentration. In assays employing D-threo-PPMP, PPMP was employed at a fixed, minimally-toxic, final concentration of 10 μM in each well. Control wells received ethanol (final concentration=0.12%-0.20%) in complete medium equivalent to the maximum final ethanol concentration of drug-treated wells. Plates were incubated at various oxygen concentrations to simulate physiological hypoxia (i.e., 2% oxygen=typical solid tumor oxygen levels; 5%=bone marrow oxygen levels for leukemias; 20% room air=supraphysiological oxygen for comparison with typical laboratory culture conditions). Plates were assayed at 3-4 days after initiating drug exposure depending on the growth properties of each cell line, to allow for maximum cell death and outgrowth of surviving cells. To measure cytotoxicity, FDA (stock solution of 1 mg/ml in DMSO) was added, in 50 µL of complete medium per well, to a final concentration of 10 µg/ml. The plates were incubated for an additional 15-30 minutes at 37 C and then 30 µL of eosin Y (0.5% in normal saline) was added per well. Total fluorescence of each well was then measured using digital imaging microscopy.
(§2) FIGS. 1 to 26 illustrate the effect (Examples A1 through A26) of the claimed invention and were carried out using the procedures disclosed herein.

[3] = tested on: MCF-7/ADR (OVCAR-8/ADR) ovarian cancer cell line; test: DIMSCAN cytotoxicity dose-response with fenretinide (Examples A, FIG. 16); assay type: cell-based, human; details: 2% oxygen, at one or more doses, +96 hrs
Protocol: Cytotoxicity Assay: Cytotoxicity in cell lines was determined using a fluorescence-based assay employing digital imaging microscopy (DIMSCAN)(after Fragala, et al, Mol Cancer Ther, 6:886-897, 2007). DIMSCAN quantitates viable cells which selectively accumulate fluorescein diacetate and is capable of measuring cytotoxicity over a 4-5 log dynamic range by quantifying total fluorescence per well (which is proportional to viable, clonogenic cells) after eliminating background fluorescence using digital thresholding and eosin Y quenching. Briefly, cell lines were seeded into 96-well plates in 100 µL of complete culture medium (10-20% serum) per well. Cells were incubated overnight in 2%, 5% or 20% oxygen (room air) prior to addition of drugs in […] volumes of complete medium to various final drug concentrations in replicates of 12 wells per concentration. In assays employing D-threo-PPMP, PPMP was employed at a fixed, minimally-toxic, final concentration of 10 μM in each well. Control wells received ethanol (final concentration=0.12%-0.20%) in complete medium equivalent to the maximum final ethanol concentration of drug-treated wells. […] Total fluorescence of each well was then measured using digital imaging microscopy. […]

[4] = tested on: LNCaP prostate adenocarcinoma cell line; test: DIMSCAN cytotoxicity, fenretinide + L-threo-sphinganines 3:1 (Example B16); assay type: cell-based, human; details: LNCaP.FGC
Protocol: (§3) Cytotoxicity Assay—Once again, cytotoxicity is determined using the DIMSCAN assay system (R. Proffitt et al., Cytometry 24, 204-213 (1996); T. Frgala et al., Mol Cancer Ther. 6:886-97, 2007). The system employs digital imaging microscopy to quantify viable cells, which selectively accumulate fluorescein diacetate to become brightly fluorescent. The system is capable of measuring cytotoxicity over a 4-5 log dynamic range by quenching the residual fluorescence of dead and dying cells with eosin Y and quantifying the total fluorescence of viable cells using digital thresholding. Measured fluorescence is directly proportionate to the number of viable cells. A comparison of the total fluorescence of a drug-treated cell population to the fluorescence of a similar number of untreated cells yields a survival fraction. In brief, 2000 to 10,000 cells/well (depending on size and growth rates) are replicate plated into 60 wells of a 96-well tissue culture plate in 0.1 mL of whole medium and allowed to attach overnight. Drug(s) are then added in 0.05 mL of whole medium to the final concentrations indicated. Drugs (fenretinide, and various chain length L-threo-sphinganines) were tested both as single agents and in a 3:1 ratio of fenretinide:sphinganine. C18-L-threo-sphinganine, or “safingol,” was also tested and results shown for reference. There are 12 wells treated per drug concentration. Twelve wells receive drug vehicle-only to the appropriate final concentration and serve as controls for the plate. Cells are incubated for 96 hours at 37° C. in ambient air with 5% CO2. Fluorescein diacetate is then added to each well in 0.05 mL media to a final concentration of 8 microgram/mL. Cells are incubated for a further 15 minutes at 37° C. and 0.03 mL of 0.5% eosin Y is added to each well. Total fluorescence of viable cells is then measured by digital imaging microscopy. Results were graphed as the ratio of the fluoresecence of drug-treated wells to non-drug treated control wells (i.e., Survival Fraction). All tests were performed at least twice. Representative results are shown.
(§4) The Combination Index (CI) is a term to describe mathematical modeling of the pharmacologic effects on cytotoxicity (cell death) of two drugs in combination based. Cytotoxic “synergy” is defined as a cell death affect which is greater than would be expected from a simple product of the single agent cytotoxicities alone (i.e. an “additive” effect). By Chou-Talalay analysis, a CI<0.9 on a Fraction Affected (“Fa”, i.e. fraction of cells killed) indicates synergy, with smaller numbers indicating greater synergy; a CI of 0.9-1.1 signifies an additive or near-additive effect; and a CI>1.1 means the drug combination is antagonistic.
Fenretinide and L-threo-sphinganines tested in human prostate adenocarcinoma (prostate cancer) cell line, LNCaP.

[5] = tested on: MOLT-4 ALL leukemia cell line; test: DIMSCAN cytotoxicity dose-response with fenretinide, with or without D-threo-PPMP (Examples A, FIGS. 6, 24-26); assay type: cell-based, human; details: +96 hrs; for C.I. of D-threo-PPMP with fenretinide+L-threo-sphinganine (three drug combination): 2% oxygen, D-threo-PPMP fixed 10 uM, at most doses
Protocol: as §1, §2

[6] = tested on: CRL-2091 normal human fibroblast cell line; test: DIMSCAN cytotoxicity, fenretinide + L-threo-sphinganines 3:1 (Example B1); assay type: cell-based; details: CRL-2091, 20% O2, 96 h
Protocol: as §3, §4
(§5) Fenretinide and L-threo-sphinganines tested in normal human fibroblast (normal skin cell) cell lines, CRL-2091 and CRL-2076.

[7] = tested on: CRL-2076 normal human fibroblast cell line; test: as above; assay type: cell-based; details: CRL-2076, 20% O2, 96 h
Protocol: as §3, §4, §5

[8] = 4-HPR 1.5 μM + L-threo-sphinganine 0.5 μM
[9] = 4-HPR 3 μM + L-threo-sphinganine 1 μM
[10] = 4-HPR 6 μM + L-threo-sphinganine 2 μM
[11] = 4-HPR 9 μM + L-threo-sphinganine 3 μM

Row | SMILES | CI [4, 8] | Fa [4, 8] | CI [4, 9] | Fa [4, 9] | CI [4, 10] | Fa [4, 10] | CI [4, 11] | Fa [4, 11] | CI (Combination Index) [6, 8] | Fa (fraction affected) [6, 8] | CI (Combination Index) [6, 9] | Fa (fraction affected) [6, 9] | CI (Combination Index) [6, 10] | Fa (fraction affected) [6, 10] | CI (Combination Index) [6, 11] | Fa (fraction affected) [6, 11] | CI (Combination Index) [7, 8] | Fa (fraction affected) [7, 8] | CI (Combination Index) [7, 9] | Fa (fraction affected) [7, 9] | further results
1 | CCCCCCCCCCCCCCCCC[C@H](O)[C@@H](N)CO [C20, (2S,3S)-2-amino-1,3-icosanediol] | 0.7 | 0.812 | 0.4 | 0.987 | 0.7 | 0.993 | 0.8 | 0.999 | – | – | – | – | – | – | – | – | – | – | – | – | C.I. (Combination Index) with fenretinide [1]: < 1; C.I. of D-threo-PPMP with fenretinide+L-threo-sphinganine (three drug combination) ([2]; 2% oxygen): < 1; C.I. (Combination Index) with fenretinide ([2]; oxygen not stated): < 1; C.I. (Combination Index) with fenretinide [3]: < 1; C.I. of D-threo-PPMP with fenretinide+L-threo-sphinganine (three drug combination) [5]: < 1
2 | CCCCCCCCCCCCCCC[C@H](O)[C@@H](N)CO [C18, (2S,3S)-2-amino-1,3-octadecanediol, reference compound] | 0.9 | 0.752 | 0.3 | 0.971 | 0.1 | 0.998 | 0.1 | 0.999 | >1 | 0.16 | >1 | 0.29 | >1 | 0.29 | 0.33 | 0.73 | >1 | 0.20 | 1 | 0.11 | CI (Combination Index) [7, 10]: >1; Fa (fraction affected) [7, 10]: 0.35; CI (Combination Index) [7, 11]: >1; Fa (fraction affected) [7, 11]: 0.94
3 | CCCCCCCCCCCCCC[C@H](O)[C@@H](N)CO [C17, (2S,3S)-2-amino-1,3-heptadecanediol] | 0.3 | 0.887 | 0.3 | 0.967 | 0.2 | 0.991 | 0.1 | 0.999 | >1 | 0.13 | >1 | 0.25 | >1 | 0.13 | >1 | 0.62 | >1 | 0.05 | >1 | 0.04 | C.I. (Combination Index) with fenretinide [1]: < 1; C.I. (Combination Index) with fenretinide ([2]; 2% oxygen): < 1; C.I. of D-threo-PPMP with fenretinide+L-threo-sphinganine (three drug combination) ([2]; 20% oxygen): < 1; C.I. of D-threo-PPMP with fenretinide+L-threo-sphinganine (three drug combination) [5]: < 1; C.I. (Combination Index) with fenretinide ([5]; at one or more doses): < 1; CI (Combination Index) [7, 10]: >1; Fa (fraction affected) [7, 10]: 0.09; CI (Combination Index) [7, 11]: >1; Fa (fraction affected) [7, 11]: 0.15
4 | CCCCCCCCCCC[C@H](O)[C@@H](N)CO [C14] | – | – | – | – | – | – | – | – | >1 | 0.32 | >1 | 0.40 | >1 | 0.21 | >1 | 0.69 | >1 | 0.10 | >1 | 0.10 | CI (Combination Index) [7, 10]: >1; Fa (fraction affected) [7, 10]: 0.12; CI (Combination Index) [7, 11]: >1; Fa (fraction affected) [7, 11]: 0.08
5 | CCCCCCCCC[C@H](O)[C@@H](N)CO [C12] | 0.5 | 0.870 | 0.3 | 0.982 | 0.4 | 0.996 | 0.4 | 0.999 | >1 | 0.27 | 0.76 | 0.44 | >1 | 0.42 | >1 | 0.54 | 1 | 0.17 | >1 | 0.30 | CI (Combination Index) [7, 10]: >1; Fa (fraction affected) [7, 10]: 0.29; CI (Combination Index) [7, 11]: >1; Fa (fraction affected) [7, 11]: 0.30
6 | CCCCCCCCCCCCCCCC[C@H](O)[C@@H](N)CO [C19, (2S,3S)-2-amino-1,3-nonadecanediol] | 1.0 | 0.697 | 0.5 | 0.980 | 0.5 | 0.999 | 0.2 | 1.000 | – | – | – | – | – | – | – | – | – | – | – | – | C.I. (Combination Index) with fenretinide [1]: < 1; C.I. of D-threo-PPMP with fenretinide+L-threo-sphinganine (three drug combination) ([2]; 20% oxygen): < 1; C.I. (Combination Index) with fenretinide ([2]; oxygen not stated): < 1; C.I. of D-threo-PPMP with fenretinide+L-threo-sphinganine (three drug combination) [5]: < 1
7 | CCCCCCCCCCCC[C@H](O)[C@@H](N)CO [C15] | – | – | – | – | – | – | – | – | >1 | 0.26 | >1 | 0.39 | >1 | 0.29 | >1 | 0.66 | 1 | 0.08 | >1 | 0.09 | CI (Combination Index) [7, 10]: >1; Fa (fraction affected) [7, 10]: 0.06; CI (Combination Index) [7, 11]: >1; Fa (fraction affected) [7, 11]: 0.07
